How the values were obtained:
patients with NVAF [1] = experiment: Clinical dose-guiding study: safety and tolerability (discontinuations, bleeding, adverse events)
Procedure: (§1) The tolerability of three different doses of X (20, 40, 60 mg p.o. b.i.d.) was compared with warfarin (aiming for an international normalisation ratio (INR) of 2 to 3) over 3 months' treatment in NVAF patients with moderately to high increased risk for stroke or systemic embolic events.
(§2) This was a multicentre, multinational, randomized, parallel group, dose-guiding study to compare the safety and tolerabilty of X with warfarin in stroke prophylaxis in patients with NVAF.
(§3) Patients were split into four groups: one group receiving 20 mg of X b.i.d, one given 40 (2×20) mg of X b.i.d, and one 60 (3×20) mg of X b.i.d. The fourth group received warfarin (open label, INR aiming for 2.0 to 3.0). All X medication was given double blind (i.e. neither doctor nor patient knew what tablet strength of X was given).
(§4) The duration of treatment was 12 weeks. […] The 40 mg b.i.d. dose was later reduced to 36 mg b.i.d. of X.

patients with NVAF [2] = experiment: Clinical dose-guiding study: stroke/TIA events; assay type: in vivo, human
Procedure: as §1, §2, §3, §4

[3] = NVAF patients, 20, 40, 60 mg p.o. b.i.d.
Procedure: as §1, §3

patients with NVAF [4] = experiment: Ongoing open label follow-up trials, 1 year on; assay type: in vivo
Excerpt: The duration of treatment was 12 weeks.

patients with NVAF [5] = experiment: Clinical dose-guiding study: warfarin management (INR by visit); assay type: in vivo, human
[6] = X Dose 140 mg (so in the source) b.i.d., 12 weeks
[7] = X group, at 60 mg b.i.d., 12 weeks
[8] = X 36 mg b.i.d., 120 treatment years
[9] = warfarin group, 40 treatment years

CCOC(=O)CN[C@@H](C(=O)N1CC[C@H]1C(=O)NCc1ccc(/C(N)=N\O)cc1)C1CCCCC1 [X, EtO2C—CH2-(R)Cgl-Aze-Pab-OH]
Prematurely discont. (percent of patients) (patients with NVAF [1]; X 20 mg p.o. b.i.d., 12 weeks): (15%)
Prematurely discont. (number of patients) (patients with NVAF [1]; X 20 mg p.o. b.i.d., 12 weeks, 66 randomised): 10
Prematurely discont. (percent of patients) (patients with NVAF [1]; X 40 mg p.o. b.i.d., 12 weeks): (19%)
Prematurely discont. (number of patients) (patients with NVAF [1]; X 40 mg p.o. b.i.d., 12 weeks, 64 randomised): 12
onset pattern of bleeding (patients with NVAF [1]; X 60 mg b.i.d., similar pattern to warfarin): occurs early in the treatment period
Prematurely discont. (percent of patients) (patients with NVAF [1]; X 60 mg p.o. b.i.d., 12 weeks): (20%)
Prematurely discont. (number of patients) (patients with NVAF [1]; X 60 mg p.o. b.i.d., 12 weeks, 60 randomised): 12
Bleeding Events, category Major (patients with NVAF [1]; X Dose 20 mg b.i.d., 12 weeks): 0
Bleeding Events, category Minor (patients with NVAF [1]; X Dose 20 mg b.i.d., 12 weeks): 1
Bleeding Events, category Multiple Minor (patients with NVAF [1]; X Dose 20 mg b.i.d., 12 weeks): 2
Bleeding Events, category None (patients) (patients with NVAF [1]; X Dose 20 mg b.i.d., 12 weeks): 61
Bleeding Events, category Unspecified (patients with NVAF [1]; X Dose 20 mg b.i.d., 12 weeks): 2
Number of Patients discontinued, reason Adverse Event (patients with NVAF [1]; X Dose 20 mg b.i.d., 12 weeks): 6
Number of Patients discontinued, reason Calc. CrCl < 40 mL/min (patients with NVAF [1]; X Dose 20 mg b.i.d., 12 weeks): 4
Number of Patients discontinued, reason Other (patients with NVAF [1]; X Dose 20 mg b.i.d., 12 weeks): 0
Number of Patients, Total Discontinued (patients with NVAF [1]; X Dose 20 mg b.i.d., 12 weeks): 10
Bleeding Events, category Major (patients with NVAF [1]; X Dose 40 mg b.i.d., 12 weeks): 0
Bleeding Events, category Minor (patients with NVAF [1]; X Dose 40 mg b.i.d., 12 weeks): 0
Bleeding Events, category Multiple Minor (patients with NVAF [1]; X Dose 40 mg b.i.d., 12 weeks): 3
Bleeding Events, category None (patients) (patients with NVAF [1]; X Dose 40 mg b.i.d., 12 weeks): 57
Bleeding Events, category Unspecified (patients with NVAF [1]; X Dose 40 mg b.i.d., 12 weeks): 2
Bleeding Events, category Major (patients with NVAF [1]; X Dose 60 mg b.i.d., 12 weeks): 0
Bleeding Events, category Minor (patients with NVAF [1]; X Dose 60 mg b.i.d., 12 weeks): 3
Bleeding Events, category Multiple Minor (patients with NVAF [1]; X Dose 60 mg b.i.d., 12 weeks): 0
Bleeding Events, category None (patients) (patients with NVAF [1]; X Dose 60 mg b.i.d., 12 weeks): 52
Bleeding Events, category Unspecified (patients with NVAF [1]; X Dose 60 mg b.i.d., 12 weeks): 4
Number of Patients discontinued, reason Adverse Event (patients with NVAF [1]; X Dose 60 mg b.i.d., 12 weeks): 5
Number of Patients discontinued, reason Calc. CrCl < 40 mL/min (patients with NVAF [1]; X Dose 60 mg b.i.d., 12 weeks): 4
Number of Patients discontinued, reason Other (patients with NVAF [1]; X Dose 60 mg b.i.d., 12 weeks): 1
Number of Patients, Total Discontinued (patients with NVAF [1]; X Dose 60 mg b.i.d., 12 weeks): 12
Number of Patients discontinued, reason Adverse Event (patients with NVAF [1]; [6]): 3
Number of Patients discontinued, reason Calc. CrCl < 40 mL/min (patients with NVAF [1]; [6]): 5
Number of Patients discontinued, reason Other (patients with NVAF [1]; [6]): 1
Number of Patients, Total Discontinued (patients with NVAF [1]; [6]): 12
liver enzyme levels (patients with NVAF [1]; a few patients treated with X): asymptomatic increases
tolerability (patients with NVAF [1]; doses of up to 60 mg b.i.d. over 3 months): well tolerated
Stroke/TIA event of individual patient (patients with NVAF [2]; X 60 mg b.i.d. group, 12 weeks, one line per patient (Pat. 121, 309)): Ischemic stroke and TIA
stroke rate (patients with NVAF [2]; X group, all doses combined, estimated 40 patient years of observation): 2.5%
TIA reported (patients with NVAF [2]; [7]): one
ischemic stroke reported (patients with NVAF [2]; [7]): one
pharmacokinetics, dose dependence [3]: dose proportional
TIAs (patients with NVAF [4]; [8]): 2
major bleeds (patients with NVAF [4]; [8]): no major bleeds
non-fatal strokes (patients with NVAF [4]; [8]): 2

CC(=O)CC(c1ccccc1)c1c(O)c2ccccc2oc1=O (centres unmarked) [Warfarin, warfarin]
Bleeding Events, category Major (patients with NVAF [1]; warfarin group, 12 weeks): 1
Bleeding Events, category Minor (patients with NVAF [1]; warfarin group, 12 weeks): 2
Bleeding Events, category Multiple Minor (patients with NVAF [1]; warfarin group, 12 weeks): 1
Bleeding Events, category None (patients) (patients with NVAF [1]; warfarin group, 12 weeks): 60
Bleeding Events, category Unspecified (patients with NVAF [1]; warfarin group, 12 weeks): 3
Number of Patients discontinued, reason Adverse Event (patients with NVAF [1]; warfarin group, 12 weeks): 4
Number of Patients discontinued, reason Calc. CrCl < 40 mL/min (patients with NVAF [1]; warfarin group, 12 weeks): 5
Number of Patients discontinued, reason Other (patients with NVAF [1]; warfarin group, 12 weeks): 3
Number of Patients discontinued, reason Withdrawn Consent (patients with NVAF [1]; warfarin group, 12 weeks): 1
Number of Patients, Total Discontinued (patients with NVAF [1]; warfarin group, 12 weeks): 13
Bleeding Events, category Major (patients with NVAF [1]; warfarin group, 12 weeks, listed as warfarin): only major bleed (genital tract) and one
Prematurely discont. (percent of patients) (patients with NVAF [1]; warfarin, INR aim 2.0-3.0, 12 weeks): (19%)
Prematurely discont. (number of patients) (patients with NVAF [1]; warfarin, INR aim 2.0-3.0, 12 weeks, 67 randomised): 13
TIAs reported (patients with NVAF [2]; warfarin group, 12 weeks): two
Stroke/TIA event of individual patient (patients with NVAF [2]; warfarin group, 12 weeks, one line per patient (Pat. 120, 153)): TIA
Patients in INR Range 1.0-1.9 (number) (patients with NVAF [5]; Visit 1, Week 0, N 62): 34
Patients in INR Range 1.0-1.9 (percent) (patients with NVAF [5]; Visit 1, Week 0, N 62): 55%
Patients in INR Range 2.0-3.0 (number) (patients with NVAF [5]; Visit 1, Week 0, N 62): 21
Patients in INR Range 2.0-3.0 (percent) (patients with NVAF [5]; Visit 1, Week 0, N 62): 34%
Patients in INR Range >3.0 (number) (patients with NVAF [5]; Visit 1, Week 0, N 62): 7
Patients in INR Range >3.0 (percent) (patients with NVAF [5]; Visit 1, Week 0, N 62): 11%
Patients in INR Range 1.0-1.9 (number) (patients with NVAF [5]; Visit 3, Week 1, N 59): 22
Patients in INR Range 1.0-1.9 (percent) (patients with NVAF [5]; Visit 3, Week 1, N 59): 37%
Patients in INR Range 2.0-3.0 (number) (patients with NVAF [5]; Visit 3, Week 1, N 59): 25
Patients in INR Range 2.0-3.0 (percent) (patients with NVAF [5]; Visit 3, Week 1, N 59): 42%
Patients in INR Range >3.0 (number) (patients with NVAF [5]; Visit 3, Week 1, N 59): 12
Patients in INR Range >3.0 (percent) (patients with NVAF [5]; Visit 3, Week 1, N 59): 20%
Patients in INR Range 1.0-1.9 (number) (patients with NVAF [5]; Visit 4, Week 2, N 54): 15
Patients in INR Range 1.0-1.9 (percent) (patients with NVAF [5]; Visit 4, Week 2, N 54): 28%
Patients in INR Range 2.0-3.0 (number) (patients with NVAF [5]; Visit 4, Week 2, N 54): 26
Patients in INR Range 2.0-3.0 (percent) (patients with NVAF [5]; Visit 4, Week 2, N 54): 48%
Patients in INR Range >3.0 (number) (patients with NVAF [5]; Visit 4, Week 2, N 54): 13
Patients in INR Range >3.0 (percent) (patients with NVAF [5]; Visit 4, Week 2, N 54): 24%
Patients in INR Range 1.0-1.9 (number) (patients with NVAF [5]; Visit 5, Week 4, N 51): 17
Patients in INR Range 1.0-1.9 (percent) (patients with NVAF [5]; Visit 5, Week 4, N 51): 33%
Patients in INR Range 2.0-3.0 (number) (patients with NVAF [5]; Visit 5, Week 4, N 51): 22
Patients in INR Range 2.0-3.0 (percent) (patients with NVAF [5]; Visit 5, Week 4, N 51): 43%
Patients in INR Range >3.0 (number) (patients with NVAF [5]; Visit 5, Week 4, N 51): 12
Patients in INR Range >3.0 (percent) (patients with NVAF [5]; Visit 5, Week 4, N 51): 24%
Patients in INR Range 1.0-1.9 (number) (patients with NVAF [5]; Visit 6, Week 8, N 49): 15
Patients in INR Range 1.0-1.9 (percent) (patients with NVAF [5]; Visit 6, Week 8, N 49): 31%
Patients in INR Range 2.0-3.0 (number) (patients with NVAF [5]; Visit 6, Week 8, N 49): 25
Patients in INR Range 2.0-3.0 (percent) (patients with NVAF [5]; Visit 6, Week 8, N 49): 51%
Patients in INR Range >3.0 (number) (patients with NVAF [5]; Visit 6, Week 8, N 49): 9
Patients in INR Range >3.0 (percent) (patients with NVAF [5]; Visit 6, Week 8, N 49): 18%
Patients in INR Range 1.0-1.9 (number) (patients with NVAF [5]; Visit 7, Week 12, N 58): 18
Patients in INR Range 1.0-1.9 (percent) (patients with NVAF [5]; Visit 7, Week 12, N 58): 31%
Patients in INR Range 2.0-3.0 (number) (patients with NVAF [5]; Visit 7, Week 12, N 58): 33
Patients in INR Range 2.0-3.0 (percent) (patients with NVAF [5]; Visit 7, Week 12, N 58): 57%
Patients in INR Range >3.0 (number) (patients with NVAF [5]; Visit 7, Week 12, N 58): 7
Patients in INR Range >3.0 (percent) (patients with NVAF [5]; Visit 7, Week 12, N 58): 12%
TIAs (patients with NVAF [4]; [9]): 2
fatal strokes (patients with NVAF [4]; [9]): 2
major life-threatening bleeds (patients with NVAF [4]; [9]): 3
